Measurements from patent US20220218826A1, “COMPOSITION FOR TOPICAL USE FOR PHOTODYNAMIC THERAPY” (UNIVERSIDAD DE LA FRONTERA, priority 2019, published 2022).

Experiments:
[1] = test system: MAL-PDT-resistant HSC-1 cells; experiment: MTT cell viability after MAL-PDT with EGCG and/or EDTA as adjuvants
Method: The in vitro effect of EGCG and EDTA separately as adjuvants of MAL-PDT was assessed HSC-1 cells derived from squamous skin carcinoma were used. Previously, these cells received PDT cycles, in order to select those that are resistant to PDT. Therefore, the model used corresponds to MAL-PDT-resistant HSC-1 cells.
The in vitro photodynamic conventional treatment consisted of incubating these cells with MAL 150 mg/g (photosensitiser) for 4 hours in the dark and after radiating them with 630 nm red light, with fluence of 4 J/cm^2. Cell viability was assessed 24 hours later by the MTT assay.
Subsequently, this protocol was carried out in the same way in these cells, only with the following modification: when adding MAL, different concentrations of EDTA were added (0.5 mg/g, 1 mg/g, 1.5 mg/g, and 2 mg/g) or EGCG (0.2 mg/g, 0.4 mg/g, 0.6 mg/g, 0.8 mg/g). The MAL concentration of 150 mg/g was kept in all tests and experiments with irradiation (light) fluency same to the control at 4 J/cm^2, or without radiation, were carried out.

[2] = test system: PDT-resistant HSC-1 cells; experiment: Detection of protoporphyrin IX (PpIX) by flow cytometry; type: cell-based; details: 4 hours in the dark
Method: For this, PDT-resistant cells, obtained as stated in example 1, were incubated with 150 mg/g MAL, plus EGCG (0.1 mg/g, 0.2 mg/g, 0.4 mg/g) or EDTA (1 mg/g, 2 mg/g, 3 mg/g) for 4 hours in the dark. Subsequently, the PpIX content in resistant cells was detected by flow cytometry, since PpIX is a fluorescent compound.

[3] = test system: PDT-resistant HSC-1 cells; experiment: Detection of reactive oxygen species (ROS) with Muse Oxidative Stress Kit; type: cell-based; details: all assessed EGCG concentrations (0.1, 0.2, 0.4 mg/g) + MAL 150 mg/g, 4 hours, red light irradiation
Method: Given that in PDT, it is finally the reactive oxygen substances that cause cell damage and death, the production of these compounds was directly assessed. The same model as in example 3 was used, at the same EGCG concentrations stated in FIG. 3A, in order to assess the production of ROS generated in MAL-PDT. Following the previous methodology, after incubating the cells for 4 hours, these received red light irradiation. For ROS detection, these were incubated with a probe (Muse™ Oxidative Stress Kit|MCH100111—Merck Millipore) for 30 minutes and was assessed in a cell analyzer.

Question: For `COC(=O)CCC(=O)CN` [MAL, methyl aminolevulinate], which “HSC-1 resistant cells survived PDT” value ([1]; control MAL-PDT: MAL 150 mg/g, 4 hours in the dark, 630 nm red light, 4 J/cm^2, MTT 24 hours later) is on record?
Answer: ~50%

Question: What about the “population that contained PpIX” value ([2]; MAL 150 mg/g alone) of the same compound?
Answer: 5%

Question: How did the “effect of EDTA in MAL-PDT on viability” value ([1]; EDTA, only at 2 mg/g, + MAL 150 mg/g, light 4 J/cm^2) turn out when `O=C(O)CN(CCN(CC(=O)O)CC(=O)O)CC(=O)O` [EDTA, ethylenediaminetetraacetic acid] was run?
Answer: significant

Question: And the “population that contained PpIX” value ([2]; MAL 150 mg/g plus EDTA (1, 2, 3 mg/g))?
Answer: ≤ 13%

Question: What does the source list for `O=C(O[C@@H]1Cc2c(O)cc(O)cc2O[C@@H]1c1cc(O)c(O)c(O)c1)c1cc(O)c(O)c(O)c1` [EGCG, epigallocatechin galate]?
Answer: ROS concentration relative to the control [3]: doubled or even tripled; survival rate ([1]; EGCG from 0.4 mg/g + MAL 150 mg/g, light 4 J/cm^2): 0; population that contained PpIX ([2]; MAL 150 mg/g plus EGCG (0.1, 0.2, 0.4 mg/g)): ≤ 18%
